Where “and” joins values, the source holds several entries; their conditions need not be identical. Identical values can stand only once. Entries after “also recorded” stand apart in the source; their conditions may differ. Like-named read-outs stand apart in the source and are kept apart here.

Data set [1] relates to HEK 293T cells expressing androgen receptor with 112 glutamines. The following applies: cited from earlier work.
The test system of the next data set is ST111/111 striatal cells. The class given is cell-based. The settings on record: 30 min at 33°C. How it is done:
(§1) After the treatment the drugs were removed and the cells washed twice in PBS. The cells were then fixed by incubation in 4% formaldehyde for 15 min, permeabilized by 0.1% Triton X-100 for 5 min and incubated for 30 min with blocking solution (1% bovine albumin in PBS). Coverslips were then incubated in primary antibody (AP229 1:500 dilution) for 2 h at room temperature and washed three times in PBS before a further 1 h in blocking solution containing the secondary antibody (goat anti-rabbit Cy3, Jackson ImmunoResearch, West Grove, PA. USA). After three washes in PBS coverslips were mounted onto glass slides with Vectashield (Burlingame, CA. USA) and the images were analyzed with a laser confocal microscope (Bio-Rad, Hercules, CA. USA) using 20 × objective. Cell death was quantified by scoring the percentage of cells with apoptotic nuclear morphology, i.e. condensed or fragmented nuclei, under the confocal microscope. In each case five to ten randomly selected fields were counted, comprising at least 200 cells, and each experiment was repeated 3 times.

In data set [2] the test system is PC12 cells expressing huntingtin exon 1 encoding 103 glutamines. More on the design: method as in PMID 15262266. The following applies: cited from earlier work.
For data set [3], the system named is ST111/111 striatal cells (Hdh^Q111/Q111, full-length mutant huntingtin). The experiment in a line: striatal cell line assay: huntingtin localization phenotype (AP229 immunostaining, confocal). Type of data set: cell-based, mouse. The settings on record: for Percentage of ST111/111 cells showing cytoplasmic/nuclear huntingtin localization comparable to wild-type ST7/7 cells: 30 min at 33°C, mean ± SD of 5–10 fields.
Source text: To test the hypothesis that compounds, which inhibit the aggregation-promoting property of amino-terminal mutant huntingtin will also rescue effects of full-length mutant huntingtin, we tested the top six inhibitors in a striatal cell-based assay. Mutant Hdh^Q111/Q111 and wild-type Hdh^Q7/Q7 striatal cell lines, […], which have been prepared by transformation with a tsSV40 vector, can be propagated in culture and used for cytological and biochemical comparisons. These cells express full-length mutant or wild-type huntingtin, respectively, with no evidence of truncated amino-terminal fragments, no formation of polyglutamine aggregates and no cell death-producing toxicity. However, like the striatal neurons of Hdh^Q111/Q111 knock-in mice, the ST111/111 cells show nuclear staining of huntingtin when tested with an amino-terminal huntingtin antibody that is sensitive to the conformation of the full-length protein (Figure 5A). By contrast, ST7/7 cells expressing wild type huntingtin show both nuclear and cytoplasmic immunostaining with the same huntingtin antibody (Figure 5A).
Conditionally immortalized wild-type Hdh^Q7/Q7 striatal neuronal progenitor cells (ST7/7) expressing endogenous normal huntingtin, and homozygous Hdh^Q111/Q111 striatal neuronal progenitor cells (ST111/111), expressing endogenous mutant huntingtin with 111-glutamines, have been described previously. The striatal cell lines were grown at 33°C in Dulbecco's modified Eagle's medium (DMEM) supplemented with 10 % fetal bovine serum (FBS), 1% nonessential aminoacids, 2 mM L-glutamine and 400 μg/ml G418 (Geneticin (GIBCO-BRL, Life Technologies, Gaithersburg, MD).
as §1, with “In the immunofluorescence and confocal analysis experiment, wild-type ST7/7 and homozygous mutant ST111/111 cells, grown to confluence on glass coverslips, were treated with 6 different drugs at four different concentrations (0.5, 5, 10 or 50 μM) for 30 min at 33°C. After the” for “After the”

Data set [4] deals with T1, Q58-htn 1–171 amino terminal fragment (GST-Q58-Htn cleaved by thrombin) (Homo sapiens, UniProt P42858, INS38QQQQQQQQQQQQQQQQQQQQQQQQQQQQQQQQQQQQQ).
T1 construct: the amino terminal fragment 1–171 of mutant huntingtin; GST (N, cleaved yes); made in house; host or cells: E. coli BL21 (pGEX-2TK vector)
T1 sequence (P42858 with tags, fused parts or gaps with the stated changes limits assumed): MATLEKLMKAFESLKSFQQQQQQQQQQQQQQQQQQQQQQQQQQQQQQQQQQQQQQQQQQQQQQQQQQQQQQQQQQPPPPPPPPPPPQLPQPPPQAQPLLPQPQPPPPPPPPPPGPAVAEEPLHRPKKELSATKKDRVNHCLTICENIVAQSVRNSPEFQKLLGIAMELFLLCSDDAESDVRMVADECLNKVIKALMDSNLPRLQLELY
The experiment in a line: in vitro aggregation of amino-terminal mutant huntingtin fragment (filter retardation dot blot). Type of data set: biochemical. As to the method:
In our primary screen (Figure 1A), GST-Q58-Htn (20 μg/ml) was mixed with thrombin (0.5 unit/μg GST-Q58-Htn) and immediately dispensed into a 96-well PCR plate containing compounds diluted to a final concentration of 100 μM. Incubation was continued for 24 hours at room temperature to allow aggregate formation. The aggregation was stopped by 2% SDS/10 mM 2-mercaptoethanol followed by boiling for 5 minutes. The mixture was filtered through a cellulose acetate membrane by using a 96-well ELIFA dot blot apparatus. The aggregates retained on the membrane were detected and quantified by immunoblotting and subsequent image analysis. Congo Red, a known huntingtin aggregation inhibitor, was used as the positive control.
A recombinant pGEX-2TK expression vector with cDNA fragment encoding amino terminal 171 amino acids of human huntingtin with a polyglutamine tract of 58 was used to prepare the GST-Q58-htn fusion protein. The GST-Q58-htn was overexpressed in BL21 cells and purified by affinity chromatography over glutathione-sepharose 4B beads (Amersham Pharmacia Biotech). The purified proteins were stored at concentration of 2.0 mg/ml at -80°C.
For primary screening of the chemical library, 1 μl of 4.0 mM small compound stock, diluted from the original plates, was placed in wells of 96-well plates. The fusion protein, GST-Q58-Htn was mixed with thrombin (0.5 unit/1 μg protein) at a concentration of 20 μg/ml in a buffer of 50 mM Tris-HCl, pH 8.0, 100 mM NaCl, 2.5 mM CaCl2, 1.0 mM EDTA. The mixture was immediately distributed into the 96-well plates containing diluted compounds at 40 μl/well and mixed well. The final concentration of the small compounds was 100 μM. After 24 hours incubation at room temperature, the reaction was stopped by adding 10 μl of 10% SDS/50 mM 2-mercaptoethanol to each well followed by boiling in a PCR machine for 5 minutes. The mixture from each well was filtered through a cellulose acetate membrane ((0.2 μm, GE Osmonics labstore, Minnetonka MN) by using a 96-well ELIFA (Pierce Biotech). The aggregates retained on the membrane were detected by a specific anti-huntingtin antibody, HP1 (diluted 1:1000), followed by incubation with peroxidase conjugated anti-rabbit antibody (diluted 1:10,000, Sigma). Signals from SDS insoluble aggregates were scanned and quantified by using ImageMaster Totalab image analysis software (Amersham Pharmacia Biotech). In the secondary screening, all steps were the same except the final concentration of compound in each well was reduced to 10 μM and the GST-Q58-Htn/thrombin mixture was preincubated for 45-minutes at room temperature and clarified by centrifugation at 28,000 × g for 30 minutes before being added to the test wells. For IC50 determinations, the in vitro aggregation assay and signal quantification were performed as in the second screening but varying the final concentration of input drug. The data for each inhibitor were obtained from at least two independent experiments in which every sample was analyzed in triplicate with Prism 3.0 software (Graphpad Software, Inc., San Diego, CA).

Data set [5] relates to hippocampal slice cultures from the R6/2 mouse. On the set-up: method as in PMID 12891671. The following applies: 30 μM; cited from earlier work.

Turning to `CC1=C(O)C(=O)C=C2C1=CC=C1[C@@]2(C)CC[C@@]2(C)[C@@H]3C[C@](C)(C(=O)O)CC[C@]3(C)CC[C@]12C` [Celastrol], in data set [1], the “effect on caspase 3 activation” value is “blocked caspase 3 activation”. Moreover, the “toxicity in the HEK 293T assay” value in data set [1] is given as “showed toxicity”. In addition, the “percentage of dead cells” value in the data set on ST111/111 striatal cells (5 μM) came out at 1%; in the data set on ST111/111 striatal cells (10 μM) it was 4%. Also, in data set [2], the “protection against polyglutamine toxicity” value is “partially protective”. The “Percentage of ST111/111 cells showing cytoplasmic/nuclear huntingtin localization comparable to wild-type ST7/7 cells” value in data set [3] (0.5 μM) came to 8.7 ± 8.7%; in data set [3] (5 μM), 69.2 ± 3.8%; in data set [3] (10 μM), 78.1 ± 3.5%. For the same compound, the “reversal of the mutant huntingtin localization phenotype (in words)” value in data set [3] (0.5–50 μM tested) is reported as “reversed the mutant phenotype in a dose-dependent manner; also recorded: effective”. The half-maximal inhibitory concentration (IC50) (usually the concentration at which inhibition is half-maximal) in data set [4] was < 6 µM and < 15 µM and 3.55 µM. The residual aggregate formed result in data set [4] (at the maximum concentration of the dose response (0.01 μM to 500 μM)) is listed as “approximately 20%”.
Regarding `CN(C)c1ccc(O)c2c1C[C@H]1C[C@H]3[C@H](N(C)C)C(O)=C(C(N)=O)C(=O)[C@@]3(O)C(O)=C1C2=O` [minocycline], the “effect on huntingtin exon 1 aggregation” value in data set [5] is “inhibitory effect”. Moreover, in data set [4] (GST-Q58-Htn 20 μg/ml pre-incubated with thrombin, 24 h room temperature, average of at least two independent experiments, read-out: IC50 (half-maximal inhibition) of Q58-Htn aggregation), the IC50 amounted to 43 µM.

These data come from publication PMC548150, “Reversal of a full-length mutant huntingtin neuronal cell phenotype by chemical inhibitors of polyglutamine-mediated aggregation” (BMC Neuroscience, 2005).
